According to PubChem BioAssay (NCI):
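Tested at 5 concentrations; 48 h exposure; 96-well plates; endpoints linearly interpolated, else capped at highest concentration. At the GI50, growth is halved. Definition used: TGI = concentration required for complete inhibition of growth.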

Key:
Assay in all cases: growth of human tumour cells (NCI), 48 h
[1] = test system: 786-0 renal
[2] = test system: A498 renal
[3] = test system: A549 NSCLC
[4] = test system: ACHN renal
[5] = test system: BT-549 breast
[6] = test system: CAKI-1 renal
[7] = test system: CCRF-CEM leukemia
[8] = test system: COLO 205 colon
[9] = test system: DU-145 prostate
[10] = test system: EKVX NSCLC
[11] = test system: HCC-2998 colon
[12] = test system: HCT-116 colon
[13] = test system: HCT-15 colon
[14] = test system: HL-60(TB) leukemia
[15] = test system: HOP-62 NSCLC
[16] = test system: HOP-92 NSCLC
[17] = test system: HS 578T breast
[18] = test system: HT29 colon
[19] = test system: IGROV1 ovarian
[20] = test system: K-562 leukemia
[21] = test system: KM12 colon
[22] = test system: LOX IMVI melanoma
[23] = test system: M14 melanoma
[24] = test system: MALME-3M melanoma
[25] = test system: MCF7 breast
[26] = test system: MDA-MB-231 breast
[27] = test system: MDA-MB-435
[28] = test system: MOLT-4 leukemia
[29] = test system: NCI-H226 lung
[30] = test system: NCI-H23 lung
[31] = test system: NCI-H460 lung
[32] = test system: NCI-H522 lung
[33] = test system: NCI/ADR-RES ovarian
[34] = test system: OVCAR-3 ovarian
[35] = test system: OVCAR-4 ovarian
[36] = test system: OVCAR-5 ovarian
[37] = test system: OVCAR-8 ovarian
[38] = test system: PC-3 prostate
[39] = test system: RPMI-8226 leukemia
[40] = test system: RXF 393 renal
[41] = test system: SF-268 CNS
[42] = test system: SF-295 CNS
[43] = test system: SF-539 CNS
[44] = test system: SK-MEL-2 melanoma
[45] = test system: SK-MEL-28 melanoma
[46] = test system: SK-MEL-5 melanoma
[47] = test system: SK-OV-3 ovarian
[48] = test system: SN12C renal
[49] = test system: SNB-19 CNS
[50] = test system: SNB-75 CNS
[51] = test system: SR leukemia
[52] = test system: SW-620 colon
[53] = test system: T-47D breast
[54] = test system: TK-10 renal
[55] = test system: U251 CNS
[56] = test system: UACC-257 melanoma
[57] = test system: UACC-62 melanoma
[58] = test system: UO-31 renal

How did the GI50 [1] turn out when C1CCC(C(CC2CCCCN2)C2CCCCC2)CC1 (stereo unspecified) was run?
The GI50 was 1640 nM.

And the TGI [1]?
Its TGI is 3160 nM.

And the GI50 [2]?
The GI50 was 1360 nM.

And the TGI [2]?
The TGI was 2670 nM.

What about the GI50 [3] of the same molecule?
Its GI50 is 1720 nM.

And the TGI [3]?
Its TGI is 3320 nM.

And the GI50 [4]?
The GI50 was 1830 nM.

And the TGI [4]?
Its TGI is 3320 nM.

And the GI50 [5]?
Its GI50 is 1930 nM.

What about the TGI [5] of the same molecule?
Its TGI is 3510 nM.

And the GI50 [6]?
The GI50 was 1550 nM.

And the TGI [6]?
The TGI was 3060 nM.

And the GI50 [7]?
The GI50 was 1970 nM.

What about the TGI [7] of the same molecule?
Its TGI is 4820 nM.

And the GI50 [8]?
Its GI50 is 1420 nM.

And the TGI [8]?
Its TGI is 2790 nM.

What about the GI50 [9] of the same molecule?
Its GI50 is 1800 nM.

What about the TGI [9] of the same molecule?
Its TGI is 3210 nM.

What about the GI50 [10] of the same molecule?
Its GI50 is 1620 nM.

And the TGI [10]?
The TGI was 3280 nM.

What about the GI50 [11] of the same molecule?
Its GI50 is 1410 nM.

What about the TGI [11] of the same molecule?
The TGI was 2960 nM.

And the GI50 [12]?
Its GI50 is 1680 nM.

What about the TGI [12] of the same molecule?
Its TGI is 3140 nM.

What about the GI50 [13] of the same molecule?
The GI50 was 1810 nM.

And the TGI [13]?
Its TGI is 3480 nM.

What about the GI50 [14] of the same molecule?
The GI50 was 2370 nM.

What about the TGI [14] of the same molecule?
Its TGI is 4380 nM.

What about the GI50 [15] of the same molecule?
Its GI50 is 1350 nM.

And the TGI [15]?
The TGI was 2640 nM.

And the GI50 [16]?
Its GI50 is 990 nM.

What about the TGI [16] of the same molecule?
The TGI was 2360 nM.

What about the GI50 [17] of the same molecule?
The GI50 was 2150 nM.

And the TGI [17]?
The TGI was 5550 nM.

What about the GI50 [18] of the same molecule?
The GI50 was 1550 nM.

What about the TGI [18] of the same molecule?
The TGI was 3060 nM.

And the GI50 [19]?
Its GI50 is 1870 nM.

And the TGI [19]?
The TGI was 3450 nM.

What about the GI50 [20] of the same molecule?
The GI50 was 2450 nM.

What about the TGI [20] of the same molecule?
Its TGI is 5110 nM.

And the GI50 [21]?
Its GI50 is 1870 nM.

What about the TGI [21] of the same molecule?
The TGI was 3420 nM.

And the GI50 [22]?
Its GI50 is 1570 nM.

What about the TGI [22] of the same molecule?
The TGI was 3210 nM.

What about the GI50 [23] of the same molecule?
The GI50 was 1760 nM.

What about the TGI [23] of the same molecule?
The TGI was 3340 nM.

And the GI50 [24]?
The GI50 was 1920 nM.

And the TGI [24]?
The TGI was 3690 nM.

And the GI50 [25]?
The GI50 was 1650 nM.

What about the TGI [25] of the same molecule?
Its TGI is 3140 nM.

What about the GI50 [26] of the same molecule?
The GI50 was 1250 nM.

What about the TGI [26] of the same molecule?
The TGI was 2600 nM.

And the GI50 [27]?
The GI50 was 1590 nM.

And the TGI [27]?
The TGI was 3070 nM.

And the GI50 [28]?
Its GI50 is 2450 nM.

What about the TGI [28] of the same molecule?
Its TGI is 4980 nM.

What about the GI50 [29] of the same molecule?
Its GI50 is 1640 nM.

What about the TGI [29] of the same molecule?
The TGI was 3190 nM.

What about the GI50 [30] of the same molecule?
The GI50 was 1720 nM.

And the TGI [30]?
Its TGI is 3490 nM.

And the GI50 [31]?
The GI50 was 1840 nM.

What about the TGI [31] of the same molecule?
Its TGI is 3620 nM.

And the GI50 [32]?
The GI50 was 1600 nM.

And the TGI [32]?
Its TGI is 3160 nM.

And the GI50 [33]?
Its GI50 is 1880 nM.

And the TGI [33]?
Its TGI is 3810 nM.

What about the GI50 [34] of the same molecule?
The GI50 was 1820 nM.

What about the TGI [34] of the same molecule?
The TGI was 3260 nM.

And the GI50 [35]?
Its GI50 is 1650 nM.

And the TGI [35]?
The TGI was 3040 nM.

What about the GI50 [36] of the same molecule?
Its GI50 is 1700 nM.

What about the TGI [36] of the same molecule?
Its TGI is 3220 nM.

And the GI50 [37]?
Its GI50 is 1770 nM.

What about the TGI [37] of the same molecule?
The TGI was 3530 nM.

And the GI50 [38]?
The GI50 was 1500 nM.

And the TGI [38]?
Its TGI is 2950 nM.

And the GI50 [39]?
Its GI50 is 2170 nM.

What about the TGI [39] of the same molecule?
Its TGI is 5560 nM.

What about the GI50 [40] of the same molecule?
Its GI50 is 1420 nM.

What about the TGI [40] of the same molecule?
Its TGI is 2780 nM.

What about the GI50 [41] of the same molecule?
The GI50 was 1770 nM.

What about the TGI [41] of the same molecule?
Its TGI is 3230 nM.

What about the GI50 [42] of the same molecule?
Its GI50 is 1730 nM.

What about the TGI [42] of the same molecule?
The TGI was 3210 nM.

And the GI50 [43]?
The GI50 was 1820 nM.

And the TGI [43]?
Its TGI is 3390 nM.

What about the GI50 [44] of the same molecule?
The GI50 was 2030 nM.

What about the TGI [44] of the same molecule?
The TGI was 3690 nM.

What about the GI50 [45] of the same molecule?
Its GI50 is 1880 nM.

What about the TGI [45] of the same molecule?
Its TGI is 3300 nM.

What about the GI50 [46] of the same molecule?
The GI50 was 1550 nM.

And the TGI [46]?
Its TGI is 2910 nM.

What about the GI50 [47] of the same molecule?
The GI50 was 1540 nM.

And the TGI [47]?
Its TGI is 2880 nM.

What about the GI50 [48] of the same molecule?
The GI50 was 1510 nM.

What about the TGI [48] of the same molecule?
The TGI was 2970 nM.

What about the GI50 [49] of the same molecule?
The GI50 was 1780 nM.

What about the TGI [49] of the same molecule?
Its TGI is 3510 nM.

What about the GI50 [50] of the same molecule?
The GI50 was 1770 nM.

What about the TGI [50] of the same molecule?
The TGI was 3430 nM.

And the GI50 [51]?
The GI50 was 2740 nM.

What about the TGI [51] of the same molecule?
Its TGI is 6670 nM.

And the GI50 [52]?
Its GI50 is 1770 nM.

What about the TGI [52] of the same molecule?
Its TGI is 3400 nM.

And the GI50 [53]?
Its GI50 is 1440 nM.

And the TGI [53]?
Its TGI is 2940 nM.

What about the GI50 [54] of the same molecule?
Its GI50 is 1630 nM.

What about the TGI [54] of the same molecule?
The TGI was 3090 nM.

And the GI50 [55]?
The GI50 was 1590 nM.

And the TGI [55]?
Its TGI is 3020 nM.

And the GI50 [56]?
The GI50 was 1710 nM.

What about the TGI [56] of the same molecule?
Its TGI is 3530 nM.

And the GI50 [57]?
Its GI50 is 1530 nM.

What about the TGI [57] of the same molecule?
The TGI was 2960 nM.

What about the GI50 [58] of the same molecule?
Its GI50 is 1330 nM.

And the TGI [58]?
The TGI was 2650 nM.
